Like-named read-outs stand apart in the source and are kept apart here.
Biological target: T1, F508del (Homo sapiens, UniProt P13569, DEL508-508)
T1 construct: expressed in transfected cells
Test: Protocol 2: FRET membrane potential optical assay (VIPR), identification of correction compounds
Assay type: cell-based
Procedure, shortened: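 FRET read-out (CC2-DMPE donor, DiSBAC2(3) voltage-sensitive acceptor) of membrane depolarization on VIPR II. Corrector candidates incubated 16 hrs at 37° C. with NIH3T3 cells expressing F508del; temperature correction at 27° C. as positive control; stimulation by 10 μM forskolin, 20 μM genistein, chloride-free gluconate bath.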

[1] = F508del CFTR modulator activity, compounds of Table 1, read-out: EC30
[2] = Table 3, compounds of Table 1 as modulators of CFTR activity, protocol not stated

T1 sequence (P13569 with tags, fused parts or gaps DEL508-508): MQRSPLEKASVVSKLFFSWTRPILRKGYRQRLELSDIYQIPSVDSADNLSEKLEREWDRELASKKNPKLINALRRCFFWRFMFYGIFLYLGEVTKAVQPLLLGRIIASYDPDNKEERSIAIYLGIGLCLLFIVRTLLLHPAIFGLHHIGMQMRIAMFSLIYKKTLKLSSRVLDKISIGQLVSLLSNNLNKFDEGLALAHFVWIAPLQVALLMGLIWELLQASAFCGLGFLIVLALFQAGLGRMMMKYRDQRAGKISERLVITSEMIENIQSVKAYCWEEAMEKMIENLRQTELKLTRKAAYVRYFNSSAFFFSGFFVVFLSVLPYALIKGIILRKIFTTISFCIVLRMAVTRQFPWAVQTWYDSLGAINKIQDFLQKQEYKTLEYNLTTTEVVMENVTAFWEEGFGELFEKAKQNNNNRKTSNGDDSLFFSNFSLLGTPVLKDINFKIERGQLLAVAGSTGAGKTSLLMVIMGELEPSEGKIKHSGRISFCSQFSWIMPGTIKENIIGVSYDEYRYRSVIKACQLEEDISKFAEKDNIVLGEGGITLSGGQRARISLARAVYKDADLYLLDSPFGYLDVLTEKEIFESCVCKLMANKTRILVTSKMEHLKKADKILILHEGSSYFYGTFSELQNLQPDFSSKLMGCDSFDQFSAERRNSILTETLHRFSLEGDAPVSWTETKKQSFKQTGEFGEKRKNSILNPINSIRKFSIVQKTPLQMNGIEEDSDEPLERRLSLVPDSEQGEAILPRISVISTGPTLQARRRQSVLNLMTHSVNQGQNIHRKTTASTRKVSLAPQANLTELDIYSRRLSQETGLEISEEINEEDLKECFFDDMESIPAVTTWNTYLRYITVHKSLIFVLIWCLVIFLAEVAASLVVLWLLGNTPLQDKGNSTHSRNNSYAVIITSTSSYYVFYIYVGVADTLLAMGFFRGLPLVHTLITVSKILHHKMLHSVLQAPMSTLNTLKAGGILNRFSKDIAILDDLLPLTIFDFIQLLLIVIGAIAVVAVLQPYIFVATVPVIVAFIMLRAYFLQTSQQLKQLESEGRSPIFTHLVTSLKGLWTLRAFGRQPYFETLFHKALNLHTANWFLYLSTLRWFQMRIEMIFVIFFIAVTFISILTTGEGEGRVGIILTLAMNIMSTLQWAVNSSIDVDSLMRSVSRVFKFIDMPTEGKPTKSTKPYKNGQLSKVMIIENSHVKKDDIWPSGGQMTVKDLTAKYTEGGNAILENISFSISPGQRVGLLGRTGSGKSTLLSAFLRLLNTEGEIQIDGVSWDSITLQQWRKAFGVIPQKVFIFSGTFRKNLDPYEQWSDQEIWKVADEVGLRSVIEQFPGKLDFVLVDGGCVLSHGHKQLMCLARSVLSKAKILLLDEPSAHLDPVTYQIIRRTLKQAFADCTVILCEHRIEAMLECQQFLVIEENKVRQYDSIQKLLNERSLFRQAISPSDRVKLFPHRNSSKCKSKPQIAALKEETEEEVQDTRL

EC30 [1]	EC30 [2]	SMILES	further results
< 3000 nM		Cc1cc(C)cc(-c2ccc(C(=O)NS(=O)(=O)c3cccc(OCCC(C)C)n3)c(N3C[C@@H](C)CC3(C)C)n2)c1 [Compound 2701]	
3000 to 10000 nM		C[C@@H]1CN(c2nc(C3=CCCN(C(=O)CC4CCCCC4)C3)ccc2C(=O)NS(=O)(=O)c2cccc(N)n2)C(C)(C)C1 [Compound 2633, N-[(6-amino-2-pyridyl)sulfonyl]-6-[1-(2-cyclohexylacetyl)-3,6-dihydro-2H-pyridin-5-yl]-2-[(4S)-2,2,4-trimethylpyrrolidin-1-yl]pyridine-3-carboxamide]	
	+++ (“+++” means <3 uM)	Cc1cccc(C)c1Cn1nc(-c2ccc3c(ccn3C)c2)cc1C(=O)NS(=O)(=O)c1ccccc1 [Compound 263, N-(benzenesulfonyl)-2-[(2,6-dimethylphenyl)methyl]-5-(1-methylindol-5-yl)pyrazole-3-carboxamide]	
< 3000 nM		CC1CN(c2ncc(-c3ccc(C(C)(C)C#N)cc3)cc2C(=O)NS(=O)(=O)c2cccc(N)n2)C(C)(C)C1 (stereo not shown) [Compound 2521, N-[(6-amino-2-pyridyl)sulfonyl]-5-[4-(1-cyano-1-methyl-ethyl)phenyl]-2-(2,2,4-trimethylpyrrolidin-1-yl)pyridine-3-carboxamide]	
		[2H]C1([2H])[C@@H](C)CC(C)(C)N1c1nc(-c2cc(F)cc(OCC(C)C)c2)ccc1C(=O)NS(=O)(=O)c1ccccc1 [Compound 2560, N-(benzenesulfonyl)-2-[(3S)-2,2-dideuterio-3,5,5-trimethyl-pyrrolidin-1-yl]-6-(3-fluoro-5-isobutoxy-phenyl)pyridine-3-carboxamide]	EC30: < 3000 nM
< 3000 nM		CC1CN(c2ncccc2C(=O)NS(=O)(=O)c2cccc(Oc3ccc4ccccc4c3)n2)C(C)(C)C1 (stereo not shown) [Compound 2611, N—[[6-(2-naphthyloxy)-2-pyridyl]sulfonyl]-2-(2,2,4-trimethylpyrrolidin-1-yl)pyridine-3-carboxamide]	
	+++ (“+++” means <3 uM)	CC1CN(c2nc(-c3ccc(C(C)C)cc3)ccc2C(=O)NS(=O)(=O)c2cccc(N)n2)C(C)(C)C1 (stereo not shown) [Compound 693, N-[(6-amino-2-pyridyl)sulfonyl]-6-(4-isopropylphenyl)-2-(2,2,4-trimethylpyrrolidin-1-yl)pyridine-3-carboxamide]	
	+++ (“+++” means <3 uM)	Cc1cc(C)c(Cn2c(C(=O)NS(=O)(=O)c3ccccc3)cc3ccc(C)cc32)c(C)c1 [Compound 12, N-(benzenesulfonyl)-6-methyl-1-[(2,4,6-trimethylphenyl)methyl]indole-2-carboxamide]	
	+++ (“+++” means <3 uM)	Cc1cc(C)c(Cn2c(C(=O)NS(=O)(=O)c3cccc(N)c3)cc3cc(F)ccc32)c(C)c1 [Compound 153, N-(3-aminophenyl)sulfonyl-5-fluoro-1-[(2,4,6-trimethylphenyl)methyl]indole-2-carboxamide]	
	++ (“++” means between 3 uM and 10 uM)	Cc1cc(C)c(Oc2nc(-c3cccc4c3OCO4)ccc2C(=O)NS(=O)(=O)c2ccc[nH]c2=O)c(C)c1 [Compound 525, 6-(1,3-benzodioxol-4-yl)-N-[(2-oxo-1H-pyridin-3-yl)sulfonyl]-2-(2,4,6-trimethylphenoxy)pyridine-3-carboxamide]	
	+++ (“+++” means <3 uM)	Cc1cc(C)c(Oc2nc(-c3ccc(Cl)cc3)ccc2C(=O)NS(=O)(=O)c2ccc[nH]c2=O)c(C)c1 [Compound 579, 6-(4-chlorophenyl)-N-[(2-oxo-1H-pyridin-3-yl)sulfonyl]-2-(2,4,6-trimethylphenoxy)pyridine-3-carboxamide]	
	+++ (“+++” means <3 uM)	CCOc1ccc(F)c(-c2ccc(C(=O)NS(=O)(=O)c3cccc(N)n3)c(Oc3c(C)cc(C)cc3C)n2)c1 [Compound 599, N-[(6-amino-2-pyridyl)sulfonyl]-6-(5-ethoxy-2-fluoro-phenyl)-2-(2,4,6-trimethylphenoxy)pyridine-3-carboxamide]	
< 3000 nM		CCOc1cc(C)cc(-c2ccc(C(=O)NS(=O)(=O)c3cccnc3N)c(N3C[C@@H](C)CC3(C)C)n2)n1 [Compound 2256, N-[(2-amino-3-pyridyl)sulfonyl]-6-(6-ethoxy-4-methyl-2-pyridyl)-2-[(4S)-2,2,4-trimethylpyrrolidin-1-yl]pyridine-3-carboxamide]	
	+++ (“+++” means <3 uM)	Cc1cc(C)c(Oc2nc3c(cc2C(=O)NS(=O)(=O)c2cccc(N)n2)COCC3(C)C)c(C)c1 [Compound 714, N-[(6-amino-2-pyridyl)sulfonyl]-8,8-dimethyl-2-(2,4,6-trimethylphenoxy)-5,7-dihydropyrano[4,3-b]pyridine-3-carboxamide]	
< 3000 nM		COc1ccc(-c2ccc(C(=O)NS(=O)(=O)c3cccnc3N)c(N3C[C@@H](C)CC3(C)C)n2)c(C)c1C [Compound 2450, N-[(2-amino-3-pyridyl)sulfonyl]-6-(4-methoxy-2,3-dimethyl-phenyl)-2-[(4S)-2,2,4-trimethylpyrrolidin-1-yl]pyridine-3-carboxamide]	
< 3000 nM		C[C@@H]1CN(c2nc(-c3cc(F)cc(F)c3)ccc2C(=O)NS(=O)(=O)c2cccnc2N)C(C)(C)C1 [Compound 2272, N-[(2-amino-3-pyridyl)sulfonyl]-6-(3,5-difluorophenyl)-2-[(4S)-2,2,4-trimethylpyrrolidin-1-yl]pyridine-3-carboxamide]	
< 3000 nM		CC1CN(c2ncccc2C(=O)NS(=O)(=O)c2cccc(Oc3cccc4[nH]ccc34)n2)C(C)(C)C1 (stereo not shown) [Compound 2338, N—[[6-(1H-indol-4-yloxy)-2-pyridyl]sulfonyl]-2-(2,2,4-trimethylpyrrolidin-1-yl)pyridine-3-carboxamide]	
	+++ (“+++” means <3 uM)	COc1ccc(-c2ccc(C(=O)NS(=O)(=O)c3cc[nH]n3)c(Oc3c(C)cc(C)cc3C)n2)c(F)c1 [Compound 374, 6-(2-fluoro-4-methoxy-phenyl)-N-(1H-pyrazol-3-ylsulfonyl)-2-(2,4,6-trimethylphenoxy)pyridine-3-carboxamide]	
	+++ (“+++” means <3 uM)	Cc1cccc(C)c1Cn1nc(C(C)(C)C)cc1C(=O)NS(=O)(=O)c1cccc(N)c1 [Compound 185, N-(3-aminophenyl)sulfonyl-5-tert-butyl-2-[(2,6-dimethylphenyl)methyl]pyrazole-3-carboxamide]	
	+++ (“+++” means <3 uM)	Cc1cc(C)c(Oc2nc(-c3ccccc3)ccc2C(=O)NS(=O)(=O)c2cccc(N)n2)c(C)c1 [Compound 203, N-[(6-amino-2-pyridyl)sulfonyl]-6-phenyl-2-(2,4,6-trimethylphenoxy)pyridine-3-carboxamide]	
3000 to 10000 nM		Cc1ccc(F)c(-c2ccc(C(=O)NS(=O)(=O)N3CC[C@H](N)C3)c(N3C[C@@H](C)CC3(C)C)n2)c1 [Compound 2016, N-[(3S)-3-aminopyrrolidin-1-yl]sulfonyl-6-(2-fluoro-5-methyl-phenyl)-2-[(4S)-2,2,4-trimethylpyrrolidin-1-yl]pyridine-3-carboxamide]	
	+++ (“+++” means <3 uM)	CC(C)(C)c1cccc(-c2nc(C(C)(C)C)ccc2C(=O)NS(=O)(=O)c2cccc(N)c2)c1 [Compound 229, N-(3-aminophenyl)sulfonyl-6-tert-butyl-2-(3-tert-butylphenyl)pyridine-3-carboxamide]	
3000 to 10000 nM		C[C@@H]1CN(c2ncccc2C(=O)NS(=O)(=O)N2CC[C@@H](NCc3ccc(F)c(OC(F)(F)F)c3)C2)C(C)(C)C1 [Compound 2680]	
	+++ (“+++” means <3 uM)	Cc1cccc(C)c1Cn1nc(-c2ccccc2OC(C)C)cc1C(=O)NS(=O)(=O)c1ccccc1 [Compound 277, N-(benzenesulfonyl)-2-[(2,6-dimethylphenyl)methyl]-5-(2-isopropoxyphenyl)pyrazole-3-carboxamide]	
	++ (“++” means between 3 uM and 10 uM)	Cc1cc(-c2nc(C(C)(C)C)ccc2C(=O)NS(=O)(=O)c2cccc(N)c2)ccc1F [Compound 177, N-(3-aminophenyl)sulfonyl-6-tert-butyl-2-(4-fluoro-3-methyl-phenyl)pyridine-3-carboxamide]	
	+++ (“+++” means <3 uM)	Cc1cccc(C)c1Cn1nc(-c2ccc(C(F)F)cc2)cc1C(=O)NS(=O)(=O)c1ccccc1 [Compound 119, N-(benzenesulfonyl)-5-[4-(difluoromethyl)phenyl]-2-[(2,6-dimethylphenyl)methyl]pyrazole-3-carboxamide]	
< 3000 nM		C[C@@H]1CN(c2nc(-c3cc(F)ccc3O)ccc2C(=O)NS(=O)(=O)c2cccnc2N)C(C)(C)C1 [Compound 2046, N-[(2-amino-3-pyridyl)sulfonyl]-6-(5-fluoro-2-hydroxy-phenyl)-2-[(4S)-2,2,4-trimethylpyrrolidin-1-yl]pyridine-3-carboxamide]	
< 3000 nM		CC1CN(c2ncccc2C(=O)NS(=O)(=O)c2cccc(N3CCc4ccc(F)cc4C3)n2)C(C)(C)C1 (stereo not shown) [Compound 2518, N—[[6-(7-fluoro-3,4-dihydro-1H-isoquinolin-2-yl)-2-pyridyl]sulfonyl]-2-(2,2,4-trimethylpyrrolidin-1-yl)pyridine-3-carboxamide]	

SMILES	EC30 [1]	EC30 [2]	further results
CC(C)COc1cc(F)cc(-c2ccc(C(=O)NS(=O)(=O)c3ccc[nH]c3=O)c(N3CCC[C@@H](c4ccccc4)C3)n2)c1 [Compound 481, 6-(3-fluoro-5-isobutoxy-phenyl)-N-[(2-oxo-1H-pyridin-3-yl)sulfonyl]-2-[(3S)-3-phenyl-1-piperidyl]pyridine-3-carboxamide]		+++ (“+++” means <3 uM)	
CC(C)COc1cc(F)cc(-c2ccc(C(=O)NS(=O)(=O)c3cccc(N)n3)c(OC3C(C)CCC3C)n2)c1 (stereo not shown) [Compound 416, N-[(6-amino-2-pyridyl)sulfonyl]-2-(2,5-dimethylcyclopentoxy)-6-(3-fluoro-5-isobutoxy-phenyl)pyridine-3-carboxamide]		+++ (“+++” means <3 uM)	
CC(C)COc1cc(F)cc(-c2ccc(C(=O)NS(=O)(=O)c3cccc(N)n3)c(N3CCC(C)C(C)(C)C3)n2)c1 (stereo not shown) [Compound 575, N-[(6-amino-2-pyridyl)sulfonyl]-6-(3-fluoro-5-isobutoxy-phenyl)-2-(3,3,4-trimethyl-1-piperidyl)pyridine-3-carboxamide]		+++ (“+++” means <3 uM)	

— patent US10758534B2 (Vertex Pharmaceuticals Incorporated, priority 2014, dated 2020)
